In PubChem BioAssay (NCI):
Values joined by “and” are separate entries in the source; they are usually repeats but may differ in a detail not shown here. Equal values may be shown once.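 Step 1: Grow cells in 96-well plates. Step 2: Expose to compound for 48 hours at 5 concentrations. Step 3: Interpolate endpoints linearly; if unreached, use highest concentration. GI50 is the concentration that inhibits growth by half. The concentration for full growth arrest is given as TGI.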

Experiments:
Assay in all cases: NCI tumour cell line growth inhibition, 48 h
[1] = system: IGROV1 ovarian
[2] = system: UACC-257 melanoma
[3] = system: 786-0 renal
[4] = system: A498 renal
[5] = system: COLO 205 colon
[6] = system: SNB-75 CNS
[7] = system: SF-268 CNS
[8] = system: CAKI-1 renal

## C(=N/Nc1ncnc2nc[nH]c12)/c1ccccn1
[1]
  GI50: 2110 nM
  TGI: 20.9 µM
[2]
  GI50: 1.87 µM
  TGI: 7.96 µM
[3]
  GI50: 1650 nM
  TGI: 5.43 µM
[4]
  GI50: 6170 nM
  TGI: > 100 µM
[5]
  GI50: 1720 nM
  TGI: > 100 µM
[6]
  GI50: 1730 nM
  TGI: 35.1 µM
[7]
  GI50: 0.342 µM
  TGI: > 23.7 µM
[8]
  GI50: 308 nM
  TGI: 2.64 µM

## C=C1C(=O)O[C@H]2[C@H]1CC/C(COC(=O)/C=C\C(=O)NCc1ccc(Cn3c(=O)sn(-c4ccc(OC)cc4)c3=O)cc1)=C\CC[C@@]1(C)O[C@@H]21
[1]
  GI50: 505 nM
  TGI: 1.21 µM
[2]
  GI50: 0.85 µM
  TGI: 1.86 µM
[3]
  GI50: 665 nM
  TGI: 1.37 µM
[4]
  GI50: 799 nM
  TGI: 1.57 µM
[5]
  GI50: 633 nM
  TGI: 2.02 µM
[6]
  GI50: 407 nM
  TGI: 1.23 µM
[7]
  GI50: 0.693 µM
  TGI: 1.37 µM
[8]
  GI50: 291 nM
  TGI: 0.997 µM

## O=C(CCCCC(=O)N/N=C\c1ccccc1Cl)N/N=C\c1ccccc1Cl
[1]
  GI50: 8790 nM
  TGI: > 100 µM
[2]
  GI50: 2.54 µM
  TGI: > 100 µM
[3]
  GI50: 14700 nM
  TGI: 74.9 µM
[4]
  GI50: 3130 nM
  TGI: 38.1 µM
[5]
  GI50: 2910 nM
  TGI: > 100 µM
[6]
  GI50: 12700 nM
  TGI: 32.9 µM
[7]
  GI50: 13.5 µM
  TGI: 56.7 µM

## O=C(Nc1ccc(Cl)c(Cl)c1)C(=O)C(C1OC(=O)c2ccccc21)[N+](=O)[O-] (configuration not stated)
[1]
  TGI: > 100 µM
[2]
  TGI: > 100 µM
[3]
  TGI: > 100 µM
[4]
  TGI: > 100 µM
[5]
  TGI: > 100 µM
[6]
  TGI: > 100 µM
[7]
  TGI: > 100 µM
[8]
  TGI: > 100 µM

## O=C(Nc1ncc(Cc2ccccc2)s1)c1ccc2c(c1)OCCO2
[1]
  GI50: 76.1 nM
  TGI: > 100 µM
[2]
  GI50: 3.87 µM
  TGI: > 100 µM
[3]
  GI50: 56.2 nM
  TGI: > 100 µM
[4]
  GI50: 12.3 nM
  TGI: 0.0687 µM
[5]
  GI50: 35.4 nM
  TGI: 1.08 µM
[6]
  GI50: 27.7 nM
  TGI: 1.66 µM
[7]
  GI50: 0.459 µM
  TGI: > 100 µM
[8]
  GI50: 40.6 nM
  TGI: > 39 µM

## CC(C)c1ccc2c(N=Nc3ccc(S(N)(=O)=O)cc3)c(O)[nH]c2c1
[1]
  GI50: > 15500 nM
  TGI: > 25 µM
[2]
  GI50: > 21.5 µM
  TGI: > 25 µM
[3]
  GI50: 12600 nM
  TGI: > 25 µM
[4]
  GI50: > 21500 nM
  TGI: > 25 µM
[5]
  GI50: > 25000 nM
  TGI: > 25 µM
[6]
  GI50: 4720 nM
  TGI: 10.3 µM
[7]
  GI50: 7.52 µM
  TGI: > 20.2 µM
[8]
  GI50: 24900 nM
  TGI: > 25 µM

## CCc1ccc(CCC(=O)Nc2ncc(Cc3cc(Cl)ccc3Cl)s2)o1
[1]
  GI50: 1690 nM
  TGI: > 50 µM
[3]
  GI50: 2700 nM
  TGI: > 50 µM
[4]
  GI50: 1190 nM
  TGI: 3.46 µM
[5]
  GI50: 1260 nM
  TGI: 11 µM
[6]
  GI50: 412 nM
  TGI: 2.4 µM
[7]
  GI50: 3.6 µM
  TGI: > 50 µM
[8]
  GI50: 774 nM
  TGI: 12.1 µM

## CN(C)c1ccc(/C=C(\C#N)c2cc3ccccc3n2C)cc1
[1]
  GI50: 143 nM
  TGI: > 100 µM
[2]
  GI50: 2.98 µM
  TGI: > 100 µM
[3]
  GI50: 418 nM
  TGI: > 100 µM
[4]
  GI50: 41.2 nM
  TGI: 0.604 µM
[5]
  GI50: 258 nM
  TGI: 1.72 µM
[6]
  GI50: 56.2 nM
  TGI: 1.75 µM
[7]
  GI50: 2.18 µM
  TGI: > 100 µM
[8]
  GI50: 85.6 nM
  TGI: > 100 µM

## CC1(C)CC(=O)C2=C(C1)NC(SSC1=C(C#N)C(c3ccc(Br)cc3)C3=C(CC(C)(C)CC3=O)N1)=C(C#N)C2c1ccc(Br)cc1 (configuration not stated)
[1]
  GI50: > 150 µg/mL
  TGI: > 100 µM and 150 µg/mL
[2]
  GI50: > 150 µg/mL
  TGI: > 100 µM and 150 µg/mL
[3]
  GI50: 53.8 µg/mL
  TGI: > 100 µM and 150 µg/mL
[4]
  GI50: > 150 µg/mL
  TGI: > 100 µM and 150 µg/mL
[5]
  GI50: > 150 µg/mL
  TGI: > 100 µM and 150 µg/mL
[6]
  GI50: > 150 µg/mL
  TGI: 150 µg/mL
[7]
  GI50: > 150 µg/mL
  TGI: > 100 µM and 150 µg/mL
[8]
  GI50: > 150 µg/mL
  TGI: > 100 µM and 150 µg/mL

## CN(C)CCCNC(=O)c1cc(NC(=O)CCNC(=O)c2ccc3c(c2)C(=O)c2ccccc2C3=O)cn1C
[1]
  GI50: > 100000 nM
  TGI: > 100 µM
[2]
  GI50: 21.8 µM
  TGI: 95.5 µM
[3]
  GI50: > 100000 nM
  TGI: > 100 µM
[4]
  GI50: > 100000 nM
  TGI: > 100 µM
[5]
  GI50: 33900 nM
  TGI: > 100 µM
[7]
  GI50: 71 µM
  TGI: > 100 µM
[8]
  GI50: > 100000 nM
  TGI: > 100 µM

## C[As](C)Sc1ccnc(S[As](C)C)n1
[1]
  GI50: 4730 nM
  TGI: > 40.8 µM
[2]
  GI50: 5 µM
  TGI: 27.1 µM
[3]
  GI50: 5360 nM
  TGI: > 40.5 µM
[4]
  GI50: 26000 nM
  TGI: > 100 µM
[5]
  GI50: 1530 nM
  TGI: > 39.3 µM
[6]
  GI50: 12700 nM
  TGI: > 100 µM
[7]
  GI50: 7.44 µM
  TGI: > 39.7 µM
[8]
  GI50: 4350 nM
  TGI: 22.9 µM

## CCOc1cc(C=O)c2c(ccc3ccc(OC)c(OC)c32)c1OC
[1]
  TGI: > 100 µM
[2]
  TGI: > 100 µM
[3]
  TGI: > 100 µM
[5]
  TGI: > 100 µM
[6]
  TGI: > 100 µM
[7]
  TGI: > 100 µM
[8]
  TGI: > 100 µM

## O=C(CCCCCCC(=O)N/N=C/c1ccc(N(c2ccccc2)c2ccccc2)cc1)NO
[1]
  GI50: 505 nM
  TGI: 2.74 µM
[2]
  GI50: 0.39 µM
  TGI: 1.57 µM
[3]
  GI50: 1580 nM
  TGI: 3.7 µM
[4]
  GI50: 357 nM
  TGI: 1.62 µM
[5]
  GI50: 2020 nM
  TGI: 4.63 µM
[6]
  GI50: 2040 nM
  TGI: 14.2 µM
[7]
  GI50: 3.27 µM
  TGI: 13.6 µM
[8]
  GI50: 201 nM
  TGI: 1.24 µM

## C=CCCC(O)c1ccc(C(O)CCCCCCCCCCCC)o1 (configuration not stated)
[1]
  GI50: 18700 nM
  TGI: 43.2 µM
[2]
  GI50: 19.2 µM
  TGI: 40.1 µM
[3]
  GI50: 17600 nM
  TGI: 31.5 µM
[5]
  GI50: 40500 nM
  TGI: > 100 µM
[6]
  GI50: 33300 nM
  TGI: > 100 µM
[7]
  GI50: > 100 µM
  TGI: > 100 µM
[8]
  GI50: 18100 nM
  TGI: 34.8 µM

## COC(=O)C(/C(=N/N)C(=O)Nc1ccc(C)c(C)c1)c1nc2ccc(Cl)cc2[nH]c1=O (configuration not stated)
[1]
  TGI: > 100 µM
[2]
  TGI: > 100 µM
[3]
  TGI: > 100 µM
[4]
  TGI: > 100 µM
[6]
  TGI: > 100 µM
[7]
  TGI: > 100 µM
[8]
  TGI: > 100 µM

## CC(C)(C)C(=O)OCOP(=O)(OCOC(=O)C(C)(C)C)C1CCCN(OC(=O)c2ccccc2)C1=O (configuration not stated)
[1]
  GI50: 657 nM
  TGI: 3.08 µM
[2]
  GI50: 3.43 µM
  TGI: 22.4 µM
[3]
  GI50: 610 nM
  TGI: 26.4 µM
[4]
  GI50: 283 nM
  TGI: 0.832 µM
[5]
  GI50: 2390 nM
  TGI: 15.2 µM
[6]
  GI50: 5100 nM
  TGI: 93.1 µM
[7]
  GI50: 1.86 µM
  TGI: 61.7 µM

## COc1ccc2c(CC(=O)O)cc(=O)oc2c1
[1]
  TGI: > 100 µM
[2]
  TGI: > 100 µM
[3]
  TGI: > 100 µM
[4]
  TGI: > 100 µM
[5]
  TGI: > 100 µM
[7]
  TGI: > 100 µM
[8]
  TGI: > 100 µM
